# Earlier results, collected in patent US7204996B2, “Method of cancer treatment” (Board of Regents, The University of Texas System, priority 1999, dated 2007).
# Assays:
# [1] = test system: MDR overexpressing HL-60 cells; details: for resistance index decrease on coincubation with verapamil: in the presence of verapamil
solubility in water solutions,SMILES,cytotoxicity ([1]; MDR overexpressing HL-60 cells),resistance index ([1]; compared with idarubicin and doxorubicin),resistance index decrease on coincubation with verapamil [1]
completely insoluble,"C[C@@H]1O[C@@H](O[C@H]2C[C@](O)(C(=O)CO)Cc3c(O)c4c(c(O)c32)C(=O)c2ccccc2C4=O)[C@H](I)[C@H](O)[C@H]1O [Annamycin, (7S,9S)-4-demethoxy-7-O-(2,6-dideoxy-2-iodo-alphamannopryanosyl) adriamycinone]",cytotoxic,lower than that of idarubicin and doxorubicin,did not change
–,"COc1cccc2c1C(=O)c1c(O)c3c(c(O)c1C2=O)C[C@@](O)(C(=O)CO)C[C@@H]3O[C@H]1C[C@H](N)[C@H](O)[C@H](C)O1 [doxorubicin, reference compound]",–,–,4.5 fold
–,"CC(=O)[C@]1(O)Cc2c(O)c3c(c(O)c2[C@@H](O[C@H]2C[C@H](N)[C@H](O)[C@H](C)O2)C1)C(=O)c1ccccc1C3=O [idarubicin, reference compound]",–,–,2 fold
